Measurements published in article PMC5761851, “Application of a phenotypic drug discovery strategy to identify biological and chemical starting points for inhibition of TSLP production in lung epithelial cells” (PLoS ONE, 2018).

Key:
Test in all cases: kinase selectivity panel
Format in all cases: biochemical
IGF-1R = target: T1, IGF-1R (Homo sapiens, UniProt P08069); conditions: read-out: percentage of control activity (POC), IGF-1R
T1 construct: purchased Eurofins Pharma Discovery Services (KinaseProfiler; Cerep BioPrint panel)
Procedure, shortened: (§1)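 IC50 values derive from 9 duplicate concentrations, run only for activities picked after an initial 10 μM duplicate screen across 125 representative kinases.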

Itk = target: T2, Itk (Homo sapiens, UniProt Q08881); conditions: read-out: percentage of control activity (POC), Itk
T2 construct: purchased Eurofins Pharma Discovery Services (KinaseProfiler; Cerep BioPrint panel)
T2 sequence (Q08881 1-620): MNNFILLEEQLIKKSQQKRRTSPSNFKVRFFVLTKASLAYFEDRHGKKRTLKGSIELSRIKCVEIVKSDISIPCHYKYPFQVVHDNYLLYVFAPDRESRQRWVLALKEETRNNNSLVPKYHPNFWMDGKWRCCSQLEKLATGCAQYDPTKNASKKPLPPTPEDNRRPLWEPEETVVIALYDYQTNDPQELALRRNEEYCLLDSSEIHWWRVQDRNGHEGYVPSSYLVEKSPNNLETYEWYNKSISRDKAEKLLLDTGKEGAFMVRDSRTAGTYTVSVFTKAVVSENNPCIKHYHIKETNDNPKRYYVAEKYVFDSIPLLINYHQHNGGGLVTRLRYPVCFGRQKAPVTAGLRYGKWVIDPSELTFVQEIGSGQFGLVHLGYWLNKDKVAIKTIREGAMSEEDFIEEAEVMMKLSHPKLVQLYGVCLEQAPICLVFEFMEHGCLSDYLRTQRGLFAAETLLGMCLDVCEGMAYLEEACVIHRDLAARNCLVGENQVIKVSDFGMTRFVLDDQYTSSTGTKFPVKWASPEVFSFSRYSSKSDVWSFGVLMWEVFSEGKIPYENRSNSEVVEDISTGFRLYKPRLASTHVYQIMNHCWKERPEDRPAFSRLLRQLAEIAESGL
Procedure, shortened: as §1

CaMKIIγ = target: T3, CaMKIIγ (Homo sapiens, UniProt Q13555); conditions: read-out: percentage of control activity (POC), CaMKIIγ
T3 construct: purchased Eurofins Pharma Discovery Services (KinaseProfiler; Cerep BioPrint panel)
T3 sequence (Q13555 whole entry): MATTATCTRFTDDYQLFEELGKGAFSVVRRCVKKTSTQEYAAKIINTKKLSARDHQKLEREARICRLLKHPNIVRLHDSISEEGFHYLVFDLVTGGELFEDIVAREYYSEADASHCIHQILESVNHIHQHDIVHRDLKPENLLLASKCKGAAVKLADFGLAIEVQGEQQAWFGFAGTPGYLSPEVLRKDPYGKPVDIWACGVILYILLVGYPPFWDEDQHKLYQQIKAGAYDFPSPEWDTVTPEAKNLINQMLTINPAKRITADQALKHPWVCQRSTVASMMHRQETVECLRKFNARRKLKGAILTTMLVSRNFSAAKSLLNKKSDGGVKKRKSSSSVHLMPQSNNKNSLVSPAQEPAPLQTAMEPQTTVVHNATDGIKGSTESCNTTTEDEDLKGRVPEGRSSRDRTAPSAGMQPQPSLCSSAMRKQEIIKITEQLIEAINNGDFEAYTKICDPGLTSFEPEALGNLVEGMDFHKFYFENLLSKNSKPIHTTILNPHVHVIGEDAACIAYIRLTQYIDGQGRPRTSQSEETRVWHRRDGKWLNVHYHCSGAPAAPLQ
Procedure, shortened: as §1

PDK1 = target: T4, PDK1 (Homo sapiens, UniProt O15530); conditions: read-out: percentage of control activity (POC), PDK1
T4 construct: purchased Eurofins Pharma Discovery Services (KinaseProfiler; Cerep BioPrint panel)
T4 sequence (O15530 1-556): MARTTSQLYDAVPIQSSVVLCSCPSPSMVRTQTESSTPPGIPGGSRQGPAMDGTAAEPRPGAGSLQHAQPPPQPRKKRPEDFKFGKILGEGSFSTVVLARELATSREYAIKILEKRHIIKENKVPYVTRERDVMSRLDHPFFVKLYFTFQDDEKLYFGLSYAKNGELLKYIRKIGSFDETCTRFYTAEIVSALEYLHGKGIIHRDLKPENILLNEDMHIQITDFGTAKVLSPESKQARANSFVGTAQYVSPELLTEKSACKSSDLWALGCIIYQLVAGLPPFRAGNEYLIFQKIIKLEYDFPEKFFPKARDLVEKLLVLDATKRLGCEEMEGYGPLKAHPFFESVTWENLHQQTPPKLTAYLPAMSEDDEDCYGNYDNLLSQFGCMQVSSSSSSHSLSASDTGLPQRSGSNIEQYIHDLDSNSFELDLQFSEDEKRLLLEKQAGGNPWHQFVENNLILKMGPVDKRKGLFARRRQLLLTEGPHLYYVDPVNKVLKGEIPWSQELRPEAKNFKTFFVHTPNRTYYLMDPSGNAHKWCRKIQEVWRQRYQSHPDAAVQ
Procedure, shortened: as §1

PKCγ = target: T5, PKCγ (Homo sapiens, UniProt P05129); conditions: read-out: percentage of control activity (POC), PKCγ
T5 construct: purchased Eurofins Pharma Discovery Services (KinaseProfiler; Cerep BioPrint panel)
Procedure, shortened: as §1

IRAK1 = target: T6, IRAK1 (Homo sapiens, UniProt P51617); conditions: read-out: percentage of control activity (POC), IRAK1
T6 construct: purchased Eurofins Pharma Discovery Services (KinaseProfiler; Cerep BioPrint panel)
T6 sequence (P51617 whole entry): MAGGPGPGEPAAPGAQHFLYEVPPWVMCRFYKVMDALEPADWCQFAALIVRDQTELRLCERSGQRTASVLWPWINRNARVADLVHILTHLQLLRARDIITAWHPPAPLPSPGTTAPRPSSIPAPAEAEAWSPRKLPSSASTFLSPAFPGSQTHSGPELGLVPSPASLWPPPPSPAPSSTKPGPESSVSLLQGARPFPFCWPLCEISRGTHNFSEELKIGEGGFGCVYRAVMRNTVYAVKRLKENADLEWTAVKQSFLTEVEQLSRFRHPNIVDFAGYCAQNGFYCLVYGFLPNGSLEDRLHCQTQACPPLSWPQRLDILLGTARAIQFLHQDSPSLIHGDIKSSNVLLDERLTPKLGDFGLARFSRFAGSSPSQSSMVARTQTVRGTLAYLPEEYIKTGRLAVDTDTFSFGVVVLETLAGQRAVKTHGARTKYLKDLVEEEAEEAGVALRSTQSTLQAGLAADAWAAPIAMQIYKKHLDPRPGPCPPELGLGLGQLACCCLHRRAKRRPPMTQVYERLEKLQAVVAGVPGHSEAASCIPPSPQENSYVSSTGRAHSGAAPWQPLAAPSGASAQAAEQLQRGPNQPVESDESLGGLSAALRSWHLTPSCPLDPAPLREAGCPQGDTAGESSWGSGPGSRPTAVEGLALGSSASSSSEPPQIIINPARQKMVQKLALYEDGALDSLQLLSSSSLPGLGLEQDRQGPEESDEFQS
Procedure, shortened: as §1

TrkA = target: T7, TrkA (Homo sapiens, UniProt P04629); conditions: for remaining activity at 10 µM: read-out: percentage of control activity (POC), TrkA
T7 construct: Eurofins Pharma Discovery Services (contract assay service)
Procedure, shortened: as §1

RIPK2 = target: T8, RIPK2 (Homo sapiens, UniProt O43353); conditions: read-out: percentage of control activity (POC), RIPK2
T8 construct: purchased Eurofins Pharma Discovery Services (KinaseProfiler; Cerep BioPrint panel)
T8 sequence (O43353 whole entry): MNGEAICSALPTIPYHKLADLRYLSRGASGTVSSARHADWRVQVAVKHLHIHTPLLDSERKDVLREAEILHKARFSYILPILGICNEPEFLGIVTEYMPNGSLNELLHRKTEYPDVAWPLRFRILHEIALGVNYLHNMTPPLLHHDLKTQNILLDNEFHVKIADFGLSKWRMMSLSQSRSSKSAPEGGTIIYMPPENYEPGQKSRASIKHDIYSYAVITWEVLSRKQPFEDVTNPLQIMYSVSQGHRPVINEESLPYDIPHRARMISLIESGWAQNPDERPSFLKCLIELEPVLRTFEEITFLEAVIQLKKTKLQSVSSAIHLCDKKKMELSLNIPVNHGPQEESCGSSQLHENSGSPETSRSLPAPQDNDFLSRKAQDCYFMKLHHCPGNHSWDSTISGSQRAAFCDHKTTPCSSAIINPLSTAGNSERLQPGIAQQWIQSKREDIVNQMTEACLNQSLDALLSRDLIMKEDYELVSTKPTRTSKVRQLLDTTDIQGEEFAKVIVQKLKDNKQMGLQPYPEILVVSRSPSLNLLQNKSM
Procedure, shortened: as §1

CDK9/cyclin T1 = target: T9, CDK9/cyclin T1 (Homo sapiens, UniProt P50750); conditions: read-out: percentage of control activity (POC), CDK9/cyclin T1
T9 construct: purchased Eurofins Pharma Discovery Services (KinaseProfiler; Cerep BioPrint panel)
T9 sequence (P50750 whole entry): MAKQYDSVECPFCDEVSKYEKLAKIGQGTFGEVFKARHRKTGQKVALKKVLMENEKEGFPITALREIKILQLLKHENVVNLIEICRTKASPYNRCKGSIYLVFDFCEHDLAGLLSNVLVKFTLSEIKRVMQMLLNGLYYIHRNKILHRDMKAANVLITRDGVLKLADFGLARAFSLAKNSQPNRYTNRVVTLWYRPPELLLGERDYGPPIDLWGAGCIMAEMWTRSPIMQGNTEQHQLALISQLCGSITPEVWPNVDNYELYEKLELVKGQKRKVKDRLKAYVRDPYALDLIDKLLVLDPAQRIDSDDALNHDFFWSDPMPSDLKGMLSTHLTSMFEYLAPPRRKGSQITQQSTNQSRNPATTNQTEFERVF
T9 sequence (O60563 whole entry partner): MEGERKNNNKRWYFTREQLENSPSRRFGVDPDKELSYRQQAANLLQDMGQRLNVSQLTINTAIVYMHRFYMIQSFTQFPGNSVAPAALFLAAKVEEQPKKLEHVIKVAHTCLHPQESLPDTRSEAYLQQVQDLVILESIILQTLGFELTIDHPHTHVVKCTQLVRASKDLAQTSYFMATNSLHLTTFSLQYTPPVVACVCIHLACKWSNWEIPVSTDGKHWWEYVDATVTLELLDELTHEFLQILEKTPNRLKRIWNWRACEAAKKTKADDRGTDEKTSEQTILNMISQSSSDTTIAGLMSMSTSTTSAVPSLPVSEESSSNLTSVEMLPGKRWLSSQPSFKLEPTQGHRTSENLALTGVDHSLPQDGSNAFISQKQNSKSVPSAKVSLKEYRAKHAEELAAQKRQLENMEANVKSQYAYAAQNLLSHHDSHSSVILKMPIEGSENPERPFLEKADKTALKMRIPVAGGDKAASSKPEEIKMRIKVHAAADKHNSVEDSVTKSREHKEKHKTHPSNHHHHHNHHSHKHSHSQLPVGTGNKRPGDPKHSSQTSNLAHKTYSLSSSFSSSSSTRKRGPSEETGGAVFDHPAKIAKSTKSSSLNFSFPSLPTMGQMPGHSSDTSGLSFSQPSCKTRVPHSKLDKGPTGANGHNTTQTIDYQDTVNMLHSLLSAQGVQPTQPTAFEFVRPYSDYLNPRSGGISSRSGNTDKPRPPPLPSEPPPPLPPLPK
Procedure, shortened: as §1

CaMKI = target: T10, CaMKI (Homo sapiens, UniProt Q14012); conditions: read-out: percentage of control activity (POC), CaMKI
T10 construct: purchased Eurofins Pharma Discovery Services (KinaseProfiler; Cerep BioPrint panel)
T10 sequence (Q14012 whole entry): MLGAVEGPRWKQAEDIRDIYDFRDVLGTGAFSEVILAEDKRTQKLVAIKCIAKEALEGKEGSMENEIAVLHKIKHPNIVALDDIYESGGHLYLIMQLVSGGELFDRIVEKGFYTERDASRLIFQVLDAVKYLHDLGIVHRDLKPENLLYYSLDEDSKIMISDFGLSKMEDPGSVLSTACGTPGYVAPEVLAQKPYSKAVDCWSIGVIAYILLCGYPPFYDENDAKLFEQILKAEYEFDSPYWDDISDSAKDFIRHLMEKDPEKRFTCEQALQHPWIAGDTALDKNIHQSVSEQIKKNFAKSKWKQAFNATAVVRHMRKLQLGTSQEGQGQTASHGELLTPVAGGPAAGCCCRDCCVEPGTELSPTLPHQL
Procedure, shortened: as §1

IKKα = target: T11, IKKα (Homo sapiens, UniProt O15111); conditions: read-out: percentage of control activity (POC), IKKα
T11 construct: purchased Eurofins Pharma Discovery Services (KinaseProfiler; Cerep BioPrint panel)
T11 sequence (O15111 1-745): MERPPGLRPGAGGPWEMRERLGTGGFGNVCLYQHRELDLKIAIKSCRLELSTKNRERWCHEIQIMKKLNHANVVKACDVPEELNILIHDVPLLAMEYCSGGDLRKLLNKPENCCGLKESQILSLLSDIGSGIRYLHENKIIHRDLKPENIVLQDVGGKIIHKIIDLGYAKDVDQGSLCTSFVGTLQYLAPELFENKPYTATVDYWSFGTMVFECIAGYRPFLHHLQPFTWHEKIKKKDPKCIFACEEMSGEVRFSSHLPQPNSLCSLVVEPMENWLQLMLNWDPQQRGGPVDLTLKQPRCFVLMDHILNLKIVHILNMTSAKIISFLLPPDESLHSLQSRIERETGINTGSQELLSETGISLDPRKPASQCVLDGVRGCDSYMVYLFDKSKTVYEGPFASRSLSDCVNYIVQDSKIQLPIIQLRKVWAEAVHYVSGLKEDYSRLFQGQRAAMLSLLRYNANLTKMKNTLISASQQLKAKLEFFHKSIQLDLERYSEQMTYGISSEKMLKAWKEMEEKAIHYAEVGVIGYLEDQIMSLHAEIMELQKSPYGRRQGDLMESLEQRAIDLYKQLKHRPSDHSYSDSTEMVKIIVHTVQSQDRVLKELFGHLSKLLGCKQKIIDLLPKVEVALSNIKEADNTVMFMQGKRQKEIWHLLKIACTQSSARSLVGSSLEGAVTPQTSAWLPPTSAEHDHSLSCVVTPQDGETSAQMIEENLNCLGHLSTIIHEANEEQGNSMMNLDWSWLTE
Procedure, shortened: as §1

Rsk2 = target: T12, Rsk2 (Homo sapiens, UniProt P51812); conditions: read-out: percentage of control activity (POC), Rsk2
T12 construct: purchased Eurofins Pharma Discovery Services (KinaseProfiler; Cerep BioPrint panel)
T12 sequence (P51812 whole entry): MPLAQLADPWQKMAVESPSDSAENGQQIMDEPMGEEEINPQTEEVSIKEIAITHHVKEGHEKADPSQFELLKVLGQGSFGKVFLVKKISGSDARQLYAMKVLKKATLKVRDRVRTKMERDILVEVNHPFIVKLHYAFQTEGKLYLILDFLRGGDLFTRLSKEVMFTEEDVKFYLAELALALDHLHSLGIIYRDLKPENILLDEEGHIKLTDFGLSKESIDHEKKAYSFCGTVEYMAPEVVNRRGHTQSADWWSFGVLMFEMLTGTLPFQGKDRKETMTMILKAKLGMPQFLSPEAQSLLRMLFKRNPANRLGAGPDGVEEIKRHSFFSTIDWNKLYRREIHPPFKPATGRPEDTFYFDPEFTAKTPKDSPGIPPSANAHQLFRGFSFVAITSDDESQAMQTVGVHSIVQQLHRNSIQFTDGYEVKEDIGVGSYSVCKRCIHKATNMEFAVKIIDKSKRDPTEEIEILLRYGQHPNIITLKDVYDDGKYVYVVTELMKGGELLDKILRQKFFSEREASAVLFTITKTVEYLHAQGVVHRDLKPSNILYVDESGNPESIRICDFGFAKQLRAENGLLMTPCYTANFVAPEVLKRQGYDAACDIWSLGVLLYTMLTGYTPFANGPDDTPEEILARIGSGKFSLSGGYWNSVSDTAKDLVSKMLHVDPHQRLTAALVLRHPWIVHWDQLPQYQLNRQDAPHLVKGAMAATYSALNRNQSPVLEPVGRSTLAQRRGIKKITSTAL
Procedure, shortened: as §1

Row | Compound | remaining activity at 10 µM (IGF-1R) [%] | remaining activity at 10 µM (Itk) [%] | remaining activity at 10 µM (CaMKIIγ) [%] | remaining activity at 10 µM (PDK1) [%] | remaining activity at 10 µM (PKCγ) [%] | remaining activity at 10 µM (IRAK1) [%] | remaining activity at 10 µM (TrkA; 10 μM) [%] | remaining activity at 10 µM (RIPK2) [%] | remaining activity at 10 µM (CDK9/cyclin T1) [%] | remaining activity at 10 µM (CaMKI) [%] | remaining activity at 10 µM (IKKα) [%] | remaining activity at 10 µM (Rsk2) [%] | inhibition at 10 µM (TrkA; 10 μM) [%] | IC50 (TrkA; biochemical dose response, duplicate, read-out: Inhibition of indicated activity (IC50, μM): TrkA) [µM]
1 | CC(C)(C)N1CCC(c2cc(-c3ccc(F)cc3Cl)c3cc[n+]([O-])c(-c4c(Cl)cccc4Cl)c3n2)CC1 [compound 2] | 113 | 110 | 91 | 121 | 117 | 102 | 91 | 61 | 96 | 94 | 102 | 101 | – | –
2 | Cc1ccc(C(=O)NCC2CC2)cc1-c1ccc2c(c1)NC(=O)C21CCCC1 [compound 3] | 89 | 103 | 103 | 98 | 104 | 91 | 67 | 94 | 85 | 95 | 101 | 103 | – | –
3 | Cn1cc(-c2cccc(-c3nc(C(=O)NC4C5CC6CC4CC(O)(C6)C5)c(N)nc3N)c2)cn1 (centres unmarked) [compound 4] | 94 | 109 | 83 | 118 | 96 | 89 | 14 | 61 | 95 | 87 | 100 | 88 | 86 | 3.23
4 | CS(=O)(=O)N1CCN(c2ccc(Nc3ncc(C(N)=O)c(NC4CC4)n3)cc2)CC1 [compound 5] | 64 | 3 | 24 | 7 | 4 | 20 | 1 | 81 | 56 | 28 | 1 | -2 | – | –
5 | COc1c(NC(=O)c2ccc(C)c(-c3nnc4c(NCC(C)(C)C)nccn34)c2)cc(C(C)(C)C)cc1NS(C)(=O)=O [compound 7, reference compound] | 123 | 114 | 102 | 121 | 105 | 95 | 68 | 100 | 97 | 108 | 135 | 112 | – | –
